Results reported in patent US20260184707A1, “PHARMACEUTICAL COMPOUNDS FOR THE TREATMENT OF COMPLEMENT MEDIATED DISORDERS” (ALEXION PHARMACEUTICALS, INC., priority 2022, published 2026).

target: T1, Human complement C1s enzyme (Homo sapiens, UniProt P09871); test: Human C1s enzyme assay; type: biochemical; conditions: human complement C1s enzyme 1.16 nM, substrate Z-L-Lys-SBzl, A405; read-out: IC50 (Stars)
T1 construct: purified from human serum, Complement Technology, Inc; purchased Complement Technology, Inc; host or cells: human serum (plasma-derived native protein)
T1 sequence (P09871 438-688 limits assumed): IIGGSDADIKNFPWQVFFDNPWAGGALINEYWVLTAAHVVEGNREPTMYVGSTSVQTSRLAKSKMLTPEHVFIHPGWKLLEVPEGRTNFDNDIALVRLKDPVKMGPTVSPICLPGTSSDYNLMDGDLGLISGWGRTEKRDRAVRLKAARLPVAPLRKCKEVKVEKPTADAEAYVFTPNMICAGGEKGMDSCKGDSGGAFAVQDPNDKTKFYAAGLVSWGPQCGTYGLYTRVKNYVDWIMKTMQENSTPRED
T1 sequence (P09871 16-437 partner limits assumed): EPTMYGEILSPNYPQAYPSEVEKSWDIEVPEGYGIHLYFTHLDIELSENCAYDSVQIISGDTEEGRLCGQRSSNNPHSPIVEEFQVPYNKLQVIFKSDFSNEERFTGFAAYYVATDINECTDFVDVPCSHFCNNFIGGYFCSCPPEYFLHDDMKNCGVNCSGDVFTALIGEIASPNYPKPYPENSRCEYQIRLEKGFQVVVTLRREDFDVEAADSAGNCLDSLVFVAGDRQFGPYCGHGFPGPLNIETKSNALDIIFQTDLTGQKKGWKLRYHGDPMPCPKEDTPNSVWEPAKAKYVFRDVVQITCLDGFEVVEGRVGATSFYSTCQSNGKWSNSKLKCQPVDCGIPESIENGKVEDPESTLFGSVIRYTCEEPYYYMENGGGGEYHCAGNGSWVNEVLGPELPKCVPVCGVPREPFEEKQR
Method in brief: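 Serum-purified human C1s (1.16 nM final) preincubated 5 min at room temperature with compound in 50 mM Tris, 1 M NaCl, pH 7.5. Z-L-Lys-SBzl and DTNB added at 100 μM each; A405 recorded every 30 s. IC50 from nonlinear regression of reaction rates versus compound concentration.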

Row | Compound | IC50
1 | C[C@@H](Nc1cnc(C2CCCC2)n(CC(=O)NCc2cc3cnccc3[nH]2)c1=O)c1coc(-c2ccccc2)n1 [Compound 476, (R)-N-((1H-pyrrolo[3,2-c]pyridin-2-yl)methyl)-2-(2-cyclopentyl-6-oxo-5-((1-(2-phenyloxazol-4-yl)ethyl)-amino)pyrimidin-1(6H)-yl)-acetamide] | 100 to 1000 nM
2 | O=C(Cn1c(-c2ccccc2)ncc(NC(=O)c2ncc(-c3ccccc3)[nH]2)c1=O)NCc1cc2cnccc2[nH]1 [Compound 169, N-(1-(2-(((1H-pyrrolo[3,2-c]pyridin-2-yl)methyl)amino)-2-oxoethyl)-6-oxo-2-phenyl-1,6-dihydropyrimidin-5-yl)-5-phen-yl-1H-imidazole-2-carbox-amide] | < 100 nM
3 | C[C@@H](Nc1cnc(N2CCCC2)n(CC(=O)NCc2cc3cnccc3[nH]2)c1=O)c1ccc2oc3ccccc3c2c1 [Compound 367, (R)—N-((1H-pyrrolo[3,2-c]pyridin-2-yl)methyl)-2-(5-((1-(dibenzo[b,d]furan-2-yl)ethyl)amino)-6-oxo-2-(pyrrolidin-1-yl)pyrimidin-1(6H)-yl)acetamide] | > 1000 nM
4 | O=C(Cn1c(-c2ccccc2)ncc(NC(=O)c2ccc(-c3ncc[nH]3)cc2)c1=O)NCc1cc2cnccc2[nH]1 [Compound 175, N-(1-(2-(((1H-pyrrolo[3,2-c]pyridin-2-yl)methyl)amino)-2-oxoethyl)-6-oxo-2-phenyl-1,6-dihydropyrimidin-5-yl)-4-(1H-imidazol-2-yl)benzamide] | < 100 nM
5 | Cc1ncc(-c2ncc(N[C@H](C)c3ccc4oc5ccccc5c4c3)c(=O)n2CC(=O)NCc2cc3cnccc3[nH]2)cn1 [Compound 391, (R)-N-((1H-pyrrolo[3,2-c]pyridin-2-yl)methyl)-2-(5-((1-(dibenzo[b,d]furan-2-yl)ethyl)-amino)-2′-methyl-6-oxo-[2,5′-bipyrimidin]-1(6H)-yl)acet-amide] | 100 to 1000 nM
6 | CS(=O)(=O)c1ccc(-c2ncc(NCc3ccc4oc5ccccc5c4c3)c(=O)n2CC(=O)NCc2cc3cnccc3[nH]2)cc1 [Compound 134, N-((1H-pyrrolo[3,2-c]pyridin-2-yl)methyl)-2-(5-((dibenzo [b,d]furan-2-ylmethyl)amino)-2-(4-(methylsulfonyl)phenyl)-6-oxopyrimidin-1(6H)-yl)-acetamide] | < 100 nM
7 | O=C(Cn1cncc(NC(=O)c2coc(-c3ccccc3)n2)c1=O)NCc1cc2cnccc2[nH]1 [Compound 392, N-(1-(2-(((1H-pyrrolo[3,2-c]pyridin-2-yl)methyl)amino)-2-oxoethyl)-6-oxo-1,6-dihydro-pyrimidin-5-yl)-2-phenyl-oxazole-4-carboxamide] | < 100 nM
8 | C[C@@H](Nc1cnc(N2CCCCC2)n(CC(=O)NCc2cc3cnccc3[nH]2)c1=O)c1ncc(-c2ccccc2)o1 [Compound 488, (R)-N-((1H-pyrrolo[3,2-c]pyridin-2-yl)methyl)-2-(6-oxo-5-((1-(5-phenyloxazol-2-yl)-ethyl)amino)-2-(piperidin-1-yl)pyrimidin-1(6H)-yl)acet-amide] | < 100 nM
9 | O=C(Cn1c(N2CCCCC2)cnc(NCc2nnc(-c3ccccc3)s2)c1=O)NCc1cc2cnccc2[nH]1 [Compound 472, N-((1H-pyrrolo[3,2-c]pyridin-2-yl)methyl)-2-(2-oxo-3-(((5-phenyl-1,3,4-thiadiazol-2-yl)-methyl)amino)-6-(piperidin-1-yl)pyrazin-1(2H)-yl)acetamide] | < 100 nM
10 | O=C(Cn1c(N2CCCCC2)cnc(NCc2noc(-c3ccccc3)n2)c1=O)NCc1cc2cnccc2[nH]1 [Compound 478, N-((1H-pyrrolo[3,2-c]pyridin-2-yl)methyl)-2-(2-oxo-3-(((5-phenyl-1,2,4-oxadiazol-3-yl)-methyl)amino)-6-(piperidin-1-yl)pyrazin-1(2H)-yl)acetamide] | < 100 nM
11 | CC(C)c1ncc(N[C@H](C)c2ccc3oc4ccccc4c3c2)c(=O)n1CC(=O)NCc1cc2cnccc2[nH]1 [Compound 341, (R)—N-((1H-pyrrolo[3,2-c]pyridine-2-yl)methyl)-2-(5-((1-(dibenzo[b,d]furan-2-yl)ethyl)amino)-2-isopropyl-6-oxopyrimidin-1(6H)-yl)acetamide] | 100 to 1000 nM
12 | C[C@@H](Nc1nnc(N2CCCCC2)n(CC(=O)NCc2cc3cnccc3[nH]2)c1=O)c1ccc2oc3ccccc3c2c1 [Compound 491, (R)-N-((1H-pyrrolo[3,2-c]pyridin-2-yl)methyl)-2-(6-((1-(dibenzo[b,d]furan-2-yl)ethyl)-amino)-5-oxo-3-(piperidin-1-yl)-1,2,4-triazin-4(5H)-yl)-acetamide] | < 100 nM
13 | NS(=O)(=O)COc1ccc(-c2ncc(NCCCc3ccccc3)c(=O)n2CC(=O)NCc2cc3cnccc3[nH]2)cc1 [Compound 67, N-((1H-pyrrolo[3,2-c]pyridine-2-yl)methyl)-2-(6-oxo-5-((3-phenylpropyl)amino)-2-(4-(sulfamoylmethoxy)phenyl)pyrimidin-1(6H)-yl)acetamide] | < 100 nM
14 | O=C(Cn1c(-c2cccnc2)ncc(NCc2ccc3oc4ccccc4c3c2)c1=O)NCc1cc2cnccc2[nH]1 [Compound 242, N-((1H-pyrrolo[3,2-c]pyridin-2-yl)methyl)-2-(5-((dibenzo [b,d]furan-2-ylmethyl)amino)-6-oxo-2-(pyridin-3-yl)pyrimi-din-1(6H)-yl)acetamide] | < 100 nM
15 | C[C@H](Nc1cnc(N2CCn3c(nnc3C(F)(F)F)C2)n(CC(=O)NCc2cc3cnccc3[nH]2)c1=O)c1ccc2oc3ccccc3c2c1 [Compound 300, (S)—N-((1H-pyrrolo[3,2-c]pyridine-2-yl)methyl)-2-(5-((1-(dibenzo[b,d]furan-2-yl)ethyl)amino)-6-oxo-2-(3-(trifluoromethyl)-5,6-dihydro-[1,2,4]triazolo[4,3-a]pyrazin-7(8H)-yl)pyrimidin-1(6H)-yl)acetamide] | < 100 nM
16 | COc1cccc(-c2ccc(C(=O)Nc3cnc(-c4ccccc4)n(CC(=O)NCc4cc5cnccc5[nH]4)c3=O)cc2F)c1 [Compound 217, N-(1-(2-(((1H-pyrrolo[3,2-c]pyridine-2-yl)methyl)amino)-2-oxoethyl)-6-oxo-2-phenyl-1,6-dihydropyrimidin-5-yl)-2-fluoro-3′-methoxy-[1,1′-biphenyl]-4-carboxamide] | < 100 nM
17 | O=C(Cn1c(-c2ccccc2)cnc(NCCCc2ccccc2)c1=O)N[C@@H](CO)c1cc2cnccc2[nH]1 [Compound 14, (R)-N-(2-hydroxy-1-(1H-pyr-rolo[3,2-c]pyridin-2-yl)ethyl)-2-(2-oxo-6-phenyl-3-((3-phen-ylpropyl)amino)pyrazin-1(2H)-yl)acetamide] | > 1000 nM
18 | C[C@@H](Nc1cnc(N2CCCCC2)n(CC(=O)NCc2cc3cnccc3[nH]2)c1=O)c1coc(-c2ccccc2F)n1 [Compound 475, (R)—N-((1H-Pyrrolo[3,2-c]pyridine-2-yl)methyl)-2-(5-((1-(2-(2-fluorophenyl)oxazol-4-yl)ethyl)amino)-6-oxo-2-(piperidin-1-yl)pyrimidin-1(6H)-yl) acetamide] | 100 to 1000 nM
19 | O=C(Cn1c(-c2ccccc2)ncc(N2CCN(c3ccccc3)CC2)c1=O)NCc1cc2cnccc2[nH]1 [Compound 37, N-((1H-pyrrolo[3,2-c]pyridin-2-yl)methyl)-2-(6-oxo-2-phen-yl-5-(4-phenylpiperazin-1-yl)-pyrimidin-1(6H)-yl)acetamide] | 100 to 1000 nM
20 | O=C(Cn1c(-c2ccccc2)ncc(NC(=O)c2n[nH]c(-c3ccccc3)n2)c1=O)NCc1cc2cnccc2[nH]1 [Compound 221, N-(1-(2-(((1H-pyrrolo[3,2-c]pyridine-2-yl)methyl)amino)-2-oxoethyl)-6-oxo-2-phenyl-1,6-dihydropyrimidin-5-yl)-5-phenyl-1H-1,2,4-triazole-3-carboxamide] | < 100 nM
21 | C[C@@H](Nc1cnc(N2CCOCC2)n(CC(=O)NCc2cc3cnccc3[nH]2)c1=O)c1ccc(-c2ccccc2F)cc1 [Compound 421, (R)-N-((1H-pyrrolo[3,2-c]pyridin-2-yl)methyl)-2-(5-((1-(2′-fluoro-[1,1′-biphenyl]-4-yl)-ethyl)amino)-2-morpholino-6-oxopyrimidin-1(6H)-yl)acet-amide] | < 100 nM
22 | C[C@@H](Nc1ncc(N2CCCCC2)n(CC(=O)NCc2cc3cnccc3[nH]2)c1=O)c1ccc(-c2ccccc2F)cc1 [Compound 423, (R)-N-((1H-pyrrolo[3,2-c]pyridin-2-yl)methyl)-2-(3-((1-(2′-fluoro-[1,1′-biphenyl]-4-yl)ethyl)amino)-2-oxo-6-(piperidin-1-yl)pyrazin-1(2H)-yl)acetamide] | < 100 nM
23 | O=C(Cn1c(-c2ccccc2)ncc(NC(=O)c2ccc(-n3cccc3)cc2)c1=O)NCc1cc2cnccc2[nH]1 [Compound 59, N-(1-(2-(((1H-pyrrolo[3,2-c]pyridin-2-yl)methyl)amino)-2-oxoethyl)-6-oxo-2-phenyl-1,6-dihydropyrimidin-5-yl)-4-(1H-pyrrol-1-yl)benzamide] | < 100 nM
